Laboratory results from patent publication US20170190744A1 (Vicuron Pharmaceuticals, Inc., priority 2015, published 2017).
≈ marks a conversion by molar mass, not a printed value. Where “and” joins values, the source holds several entries; their conditions need not be identical. Identical values can stand only once. Like-named read-outs stand apart in the source and are kept apart here. Blank lines part the entries; values can stand above or below the compound they belong to.

What was measured:
[1] = test system: gram-negative bacteria; assay: MIC by broth microdilution (NCCLS), with or without 30% bovine serum (Example 19); type: cell-based
Method: (§1) The compounds were prepared according to the examples above and the methods described in U.S. Patent Application Publication No. 2004/0142883. Individual dalbavancin compounds were purified by HPLC. […] Before dissolution, each sample was analyzed by HPLC and quantified. […] Louis, Mo.), Gentamycin (GE) (Sigma Chemical Co., St. Louis, Mo.), Penicillin G (Pen.G) (Sigma Chemical Co., St. Louis, Mo.), and Amphotericin B (Amph.B) (Sigma Chemical Co., St. Louis, Mo.). The microorganisms used were reference strains obtained from the American Type Culture Collection (ATCC) (Rockville, Md.), SmithKline and French Laboratories (SKF), and the Upjohn Company (UC) (Kalamazoo, Mich.).

[2] = test system: gram positive bacteria; assay: as above; type: cell-based
Method: as §1

[3] = test system: Candida albicans SKF 2270; assay: as above; type: cell-based; conditions: SKF2270
Method: MICs were determined by the broth microdilution methodology following the standard NCCLS procedure (NCCLS Document M7-A6, Vol. 23, No. 2, “Methods for dilution antimicrobial susceptibility tests for bacteria that grow aerobically.” Approved Guideline. January 2003, which can be herein incorporated by reference in its entirety), with or without 30% adult bovine serum (BS) (PAA Laboratories GmBH, Haidmannweg Pasching Austria), using bacterial innocula at approximately 5×10^5 CFU/ml. The media employed included cation-adjusted Müller Hinton broth (Difco Laboratories, Detroit, Mich.) that was used that was adjusted with CaCl2 and MgCl2 to a final concentration of 20 mg/L and 10 mg/L, respectively. Tests were read following 20-24 hours of incubation at 35° C.

[4] = target: N,N′-diacetyl-Lys-D-Ala-D-Ala; assay: ITC, 25 °C, apparent, 104 µM HSA present
[5] = target: N,N′-diacetyl-Lys-D-Ala-D-Ala; assay: ITC, 37 °C, apparent, 482 µM HSA present
[6] = target: N,N′-diacetyl-Lys-D-Ala-D-Ala; assay: ITC, 25 °C, free dalbavancin
[7] = target: N,N′-diacetyl-Lys-D-Ala-D-Ala; assay: ITC, 25 °C, apparent, 288 µM HSA present
[8] = target: N,N′-diacetyl-Lys-D-Ala-D-Ala; assay: ITC, 25 °C, apparent, 601 µM HSA present
[9] = target: N,N′-diacetyl-Lys-D-Ala-D-Ala; assay: ITC, 37 °C, [HSA] 0 µM
[10] = target: human serum proteins; assay: cell-based or functional assay
[11] = target: N,N′-diacetyl-Lys-D-Ala-D-Ala; assay: ITC, 25 °C, apparent, 430 µM HSA present
[12] = test system: S. pneumoniae; assay: MIC of study organisms (NCCLS microdilution); type: cell-based; conditions: S. pneumoniae strain 10813
Method: (§2) MICs were determined in MHB by standard NCCLS microdilution techniques. […] All MICs were performed at least in duplicate.

[13] = design: species or system Sprague-Dawley rats; conditions: rat, in vivo, iv, 20 mg/kg
Method: Mass balance studies were conducted to determine the excretion pattern of dalbavancin following a single intravenous (IV) infusion of dalbavancin in male rats. […] Water and methanol cage washes were also collected.

[14] = test system: S. aureus; assay: MIC of study organisms (NCCLS microdilution); type: cell-based; conditions: Staphylococcus aureus
Method: as §2

[15] = test system: gram-negative bacteria; assay: MIC by broth microdilution (NCCLS), IsoB0 and reference compounds; type: cell-based
Method: (§3) MICs were determined by the broth microdilution methodology following the standard NCCLS procedure, with or without 30% bovine serum, using bacterial inocula of approximately 5×10^5 CFU/mL. Tests were read after 20-24 h incubation at 35° C.

[16] = test system: Candida albicans SKF2270; assay: as above; type: cell-based
[17] = test system: gram-positive bacteria; assay: as above; type: cell-based
Method: Müller Hinton broth (Difco Laboratories, Detroit, Mich., USA) adjusted with CaCl2 and MgCl2 to a final concentrations of 20 mg/L and 10 mg/L respectively.
Adult bovine serum (BS) (batch A05123-159 PAA Laboratories GmBH Haidmannweg Pasching Austria).
The microorganisms used are reference standard strains from the American Type Culture Collection (ATCC, Rockville, USA), Smith Kline and French Laboratories (SKF) and the Upjohn Company (UC, Kalamazoo, Mich., USA).
as §3

[18] = In vivo biological activity of IsoB0
[19] = target: N,N′-diacetyl-Lys-D-Ala-D-Ala; assay: ITC, 25 °C, [HSA] 0 µM
[20] = target: N,N′-diacetyl-Lys-D-Ala-D-Ala; assay: ITC, 10 °C, [HSA] 0 µM
[21] = target: N,N′-diacetyl-Lys-D-Ala-D-Ala; assay: ITC, 25 °C, 513 µM HSA present
[22] = Pseudomonas aeruginosas ATCC 10145
[23] = E. faecalis ATCC29212 ref. strain
[24] = Enterococcus faecalis, ATCC7080
[25] = S. aureus ATCC29213 ref. strain
[26] = Staphylococcus aureus Smith ATCC19636

Compound: Penicillin
MIC [12]: 0.008 µg/mL

Compound: CNC1C(=O)NC2Cc3ccc(c(Cl)c3)Oc3cc4cc(c3OC3OC(C(=O)O)C(O)C(O)C3NC(=O)CCCCCCCCC(C)C)Oc3ccc(cc3Cl)C(O)C3NC(=O)C(NC(=O)C4NC(=O)C(NC2=O)c2cc(O)cc(c2)Oc2cc1ccc2O)c1ccc(O)c(c1)-c1c(OC2OC(CO)C(O)C(O)C2O)cc(O)cc1C(C(=O)NCCCN(C)C)NC3=O [Composition B0, ristomycin A aglycone, 5,31-dichloro-38-de(methoxycarbonyl)-7-demethyl-19-deoxy-56-O-(2-deoxy-2-((10-methyl-1-oxoundecyl)amino)-beta-D-glucopyranuronosyl)-38-(((3-(dimethylamino)propyl)amino)-carbonyl)-42-O-alpha-D-mannopyranosyl-N^15-methyl-]
MIC ([1]; E. coli ATCC25922 ref. strain): >64 µg/mL
MIC ([1]; Escherichia coli SKF 12140): >64 µg/mL
MIC ([1]; Proteus vulgaris, ATCC881): >64 µg/mL
MIC [1, 22]: >64 µg/mL
MIC ([2]; Bacillus subtilis ATCC6633): ≦0.06 mg/L
MIC [2, 23]: 0.125 µg/mL (≈ 0.0688 µM)
MIC [2, 24]: 0.125 µg/mL (≈ 0.0688 µM)
MIC [2, 25]: 0.125 µg/mL (≈ 0.0688 µM)
MIC ([2]; S. aureus Smith + 30% BS): 2 µg/mL
MIC ([2]; S. epidermidis ATCC12228): ≦0.06 mg/L
MIC ([2]; S. pneumoniae Felton UC41): ≦0.06 mg/L
MIC [2, 26]: 0.25 µg/mL (≈ 0.138 µM)
MIC ([2]; Streptococcus pyrogenes SKF 13400): ≦0.06 mg/L
MIC ([3]; Candida albicans): >64 µg/mL

Compound: CN[C@H]1C(=O)N[C@@H]2Cc3ccc(cc3)Oc3cc4cc(c3O[C@@H]3O[C@H](C(=O)O)[C@@H](O)[C@H](O)[C@H]3NC(=O)CCCCCCCCC(C)C)Oc3ccc(cc3Cl)[C@@H](O)[C@@H]3NC(=O)[C@H](NC(=O)[C@@H]4NC(=O)[C@@H](NC2=O)c2cc(cc(O)c2Cl)Oc2cc1ccc2O)c1ccc(O)c(c1)-c1c(O[C@H]2O[C@H](CO)[C@@H](O)[C@H](O)[C@@H]2O)cc(O)cc1[C@@H](C(=O)NCCCN(C)C)NC3=O [^3H-dalbavancin]
fraction of excreted radioactivity eliminated in feces [13]: ⅓
fraction of excreted radioactivity eliminated in urine [13]: ⅔

The next lines start with results.

MIC ([1]; ATCC881, Proteus vulgaris ATCC 881, read-out: MIC): 32 µg/mL (≈ 17.5 µM)
MIC ([1]; Escherichia coli SKF 12140, read-out: MIC): 32 µg/mL (≈ 17.5 µM)
MIC ([1]; Escherichia coli, E. coli ATCC25922 ref. strain, read-out: MIC): 32 µg/mL (≈ 17.5 µM)
MIC ([1]; Pseudomonas aeruginosas ATCC 10145, read-out: MIC): 16 µg/mL (≈ 8.74 µM)
MIC ([2]; ATCC6633, Bacillus subtilis ATCC 6633, read-out: MIC): ≤ 0.03 µg/mL
MIC ([2]; ATCC7080, Enterococcus faecalis ATCC 7080, read-out: MIC): 0.06 µg/mL (≈ 0.0328 µM)
MIC ([2]; ATCC19636, Staphylococcus aureus Smith ATCC 19636, read-out: MIC): 0.125 µg/mL (≈ 0.0683 µM)
MIC ([2]; Enterococcus faecalis, E. faecalis ATCC29212 ref. strain, read-out: MIC): 0.125 µg/mL (≈ 0.0683 µM)
MIC ([2]; Staphylococcus aureus, ATCC29213, S. aureus ATCC 29213 ref. strain, read-out: MIC): 0.125 µg/mL (≈ 0.0683 µM)
MIC ([2]; Staphylococcus aureus, S. aureus Smith + 30% BS, read-out: MIC): 2 µg/mL
MIC ([2]; Staphylococcus epidermidis, ATCC12228, S. epidermidis ATCC 12228, read-out: MIC): ≤ 0.03 µg/mL
MIC ([2]; Streptococcus pneumoniae, S. pneumoniae Felton UC41, read-out: MIC): ≤ 0.03 µg/mL
MIC ([2]; Streptococcus pyrogenes SKF 13400, read-out: MIC): ≤ 0.03 µg/mL
MIC ([3]; Candida albicans SKF 2270, read-out: MIC): 32 µg/mL (≈ 17.5 µM)
Compound: CC(C)CCCCCCCCC(=O)N[C@H]1[C@H](Oc2c3cc4cc2Oc2ccc(cc2Cl)[C@@H](O)[C@@H]2NC(=O)[C@H](NC(=O)[C@@H]4NC(=O)[C@H]4NC(=O)[C@@H](Cc5ccc(cc5)O3)NC(=O)[C@H](N(C)C)c3ccc(O)c(c3)Oc3cc(O)c(Cl)c4c3)c3ccc(O)c(c3)-c3c(O[C@H]4O[C@H](CO)[C@@H](O)[C@H](O)[C@@H]4O)cc(O)cc3[C@@H](C(=O)NCCCN(C)C)NC2=O)O[C@H](C(=O)O)[C@@H](O)[C@@H]1O [Composition B2, N^15,N^15-dimethyl dalbavancin B0]

N [4]: 1.38
N [5]: 0.179
Kd [6]: 3000 nM
N [7]: 0.9
N [8]: 0.86
N [9]: 0.82
degree of binding estimated from MIC difference [10]: 96%
N [11]: 1.24
Compound: Dalbavancin (peptide)

MIC ([14]; MRSA, S. aureus strain MRSA): > 8 µg/mL
MIC ([14]; S. aureus strain 25923): 0.12 µg/mL
MIC ([14]; S. aureus strain 31005): 0.12 µg/mL
MIC ([14]; S. aureus strain 33591): > 8 µg/mL
MIC ([14]; S. aureus strain 307109): > 8 µg/mL
MIC ([14]; S. aureus strain Smith): 0.12 µg/mL
Compound: COc1cccc(OC)c1C(=O)N[C@@H]1C(=O)N2[C@@H]1SC(C)(C)[C@@H]2C(=O)O [Methicillin]

MIC ([15]; E. coli ATCC25922 ref. strain): 64 µg/mL (≈ 35.2 µM)
MIC ([15]; Escherichia coli SKF 12140): 64 µg/mL (≈ 35.2 µM)
MIC ([15]; Proteus vulgaris, ATCC881): >64 µg/mL
MIC [15, 22]: >64 µg/mL
MIC [16]: >64 µg/mL
MIC ([17]; Bacillus subtilis ATCC6633): ≦0.06 mg/L
MIC [17, 23]: 0.25 µg/mL (≈ 0.138 µM)
MIC [17, 24]: 0.25 µg/mL (≈ 0.138 µM)
MIC [17, 25]: 0.25 µg/mL (≈ 0.138 µM)
MIC ([17]; S. aureus Smith + 30% BS): 16 µg/mL
MIC ([17]; S. epidermidis ATCC12228): 0.125 µg/mL (≈ 0.0688 µM)
MIC ([17]; S. pneumoniae Felton UC41): 0.125 µg/mL (≈ 0.0688 µM)
MIC [17, 26]: 0.5 µg/mL (≈ 0.275 µM)
MIC ([17]; Streptococcus pyogenes SKF13400): 0.06 µg/mL (≈ 0.033 µM)
Compound: CNC1C(=O)NC2Cc3ccc(cc3)Oc3cc4cc(c3OC3OC(C(=O)O)C(O)C(O)C3NC(=O)CCCCCCCCC(C)C)Oc3ccc(cc3Cl)C(O)C3NC(=O)C(NC(=O)C4NC(=O)C(NC2=O)c2cc(cc(O)c2Cl)Oc2cc1ccc2O)c1ccc(O)c(c1)-c1c(OC2OC(CO)C(O)C(O)C2O)cc(O)cc1C(C(=O)NCCCN(C)C)NC3=O (stereo not shown) [IsoB0]
activity against a panel of gram-positive bacteria ([17]; compared with dalbavancin): very similar to dalbavancin
in vivo biological activity [18]: comparable to that of dalbavancin B0

Ka [19]: 340000 M⁻¹ and 360000 M⁻¹
N [19]: 0.91 and 0.97
Ka [20]: 690000 M⁻¹
N [20]: 1.1
Ka [21]: 290000 M⁻¹
N [21]: 1.05
Compound: Vancomycin hydrochloride (peptide)
